Test results from ChEMBL document CHEMBL5113514 (J Med Chem, 2022).
The source made the active and inactive calls. The rule behind the calls is not given here.

Legend:
Mus musculus [1] = assay: Antiseizure activity against electrical stimulus induced seizure in ip dosed CD-1 mouse model assessed as reduction in hindlimb tonic extension pretreated for 1 hr by maximal electroshock seizure test; assay type: functional, organism-based
[2] = target: Synaptic vesicle glycoprotein 2A (Mus musculus, UniProt Q9JIS5); assay: Binding affinity to mouse SV2A in presence of levetiracetam by radioligand binding assay
Chain of Synaptic vesicle glycoprotein 2A (Q9JIS5 whole entry): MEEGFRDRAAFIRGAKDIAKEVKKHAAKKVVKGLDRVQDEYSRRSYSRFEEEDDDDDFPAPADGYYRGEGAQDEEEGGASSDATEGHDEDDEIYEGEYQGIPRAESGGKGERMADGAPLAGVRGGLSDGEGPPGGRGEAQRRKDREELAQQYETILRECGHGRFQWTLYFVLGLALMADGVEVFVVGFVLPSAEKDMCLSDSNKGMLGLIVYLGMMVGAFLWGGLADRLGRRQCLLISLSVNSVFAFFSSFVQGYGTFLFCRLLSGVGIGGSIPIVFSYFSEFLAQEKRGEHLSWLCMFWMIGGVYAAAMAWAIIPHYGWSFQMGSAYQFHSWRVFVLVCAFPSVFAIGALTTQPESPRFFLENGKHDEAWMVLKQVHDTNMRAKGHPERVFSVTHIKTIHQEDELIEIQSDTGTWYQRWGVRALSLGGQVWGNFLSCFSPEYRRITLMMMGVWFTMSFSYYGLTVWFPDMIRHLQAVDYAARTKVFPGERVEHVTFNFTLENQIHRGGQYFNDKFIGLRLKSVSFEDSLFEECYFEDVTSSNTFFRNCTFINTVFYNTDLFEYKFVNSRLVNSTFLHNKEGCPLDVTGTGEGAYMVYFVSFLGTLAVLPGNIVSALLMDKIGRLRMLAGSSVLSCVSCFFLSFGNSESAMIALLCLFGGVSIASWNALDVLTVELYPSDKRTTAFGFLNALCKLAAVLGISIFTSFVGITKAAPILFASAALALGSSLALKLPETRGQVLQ

Mus musculus [3] = assay: Antiseizure activity against ScPTZ-induced seizure in ip dosed CD-1 mouse model assessed as clonic seizures pretreated for 1 hr and measured after 30 mins by subcutaneous pentylenetetrazole test; assay type: functional, organism-based
[4] = target: Voltage-dependent T-type calcium channel subunit alpha-1H (Homo sapiens) (UniProt O95180); assay: Binding affinity to human Cav3.2 at 100 uM by Qpatch electrophysiological assay
Chain of Voltage-dependent T-type calcium channel subunit alpha-1H (Homo sapiens) (O95180 whole entry): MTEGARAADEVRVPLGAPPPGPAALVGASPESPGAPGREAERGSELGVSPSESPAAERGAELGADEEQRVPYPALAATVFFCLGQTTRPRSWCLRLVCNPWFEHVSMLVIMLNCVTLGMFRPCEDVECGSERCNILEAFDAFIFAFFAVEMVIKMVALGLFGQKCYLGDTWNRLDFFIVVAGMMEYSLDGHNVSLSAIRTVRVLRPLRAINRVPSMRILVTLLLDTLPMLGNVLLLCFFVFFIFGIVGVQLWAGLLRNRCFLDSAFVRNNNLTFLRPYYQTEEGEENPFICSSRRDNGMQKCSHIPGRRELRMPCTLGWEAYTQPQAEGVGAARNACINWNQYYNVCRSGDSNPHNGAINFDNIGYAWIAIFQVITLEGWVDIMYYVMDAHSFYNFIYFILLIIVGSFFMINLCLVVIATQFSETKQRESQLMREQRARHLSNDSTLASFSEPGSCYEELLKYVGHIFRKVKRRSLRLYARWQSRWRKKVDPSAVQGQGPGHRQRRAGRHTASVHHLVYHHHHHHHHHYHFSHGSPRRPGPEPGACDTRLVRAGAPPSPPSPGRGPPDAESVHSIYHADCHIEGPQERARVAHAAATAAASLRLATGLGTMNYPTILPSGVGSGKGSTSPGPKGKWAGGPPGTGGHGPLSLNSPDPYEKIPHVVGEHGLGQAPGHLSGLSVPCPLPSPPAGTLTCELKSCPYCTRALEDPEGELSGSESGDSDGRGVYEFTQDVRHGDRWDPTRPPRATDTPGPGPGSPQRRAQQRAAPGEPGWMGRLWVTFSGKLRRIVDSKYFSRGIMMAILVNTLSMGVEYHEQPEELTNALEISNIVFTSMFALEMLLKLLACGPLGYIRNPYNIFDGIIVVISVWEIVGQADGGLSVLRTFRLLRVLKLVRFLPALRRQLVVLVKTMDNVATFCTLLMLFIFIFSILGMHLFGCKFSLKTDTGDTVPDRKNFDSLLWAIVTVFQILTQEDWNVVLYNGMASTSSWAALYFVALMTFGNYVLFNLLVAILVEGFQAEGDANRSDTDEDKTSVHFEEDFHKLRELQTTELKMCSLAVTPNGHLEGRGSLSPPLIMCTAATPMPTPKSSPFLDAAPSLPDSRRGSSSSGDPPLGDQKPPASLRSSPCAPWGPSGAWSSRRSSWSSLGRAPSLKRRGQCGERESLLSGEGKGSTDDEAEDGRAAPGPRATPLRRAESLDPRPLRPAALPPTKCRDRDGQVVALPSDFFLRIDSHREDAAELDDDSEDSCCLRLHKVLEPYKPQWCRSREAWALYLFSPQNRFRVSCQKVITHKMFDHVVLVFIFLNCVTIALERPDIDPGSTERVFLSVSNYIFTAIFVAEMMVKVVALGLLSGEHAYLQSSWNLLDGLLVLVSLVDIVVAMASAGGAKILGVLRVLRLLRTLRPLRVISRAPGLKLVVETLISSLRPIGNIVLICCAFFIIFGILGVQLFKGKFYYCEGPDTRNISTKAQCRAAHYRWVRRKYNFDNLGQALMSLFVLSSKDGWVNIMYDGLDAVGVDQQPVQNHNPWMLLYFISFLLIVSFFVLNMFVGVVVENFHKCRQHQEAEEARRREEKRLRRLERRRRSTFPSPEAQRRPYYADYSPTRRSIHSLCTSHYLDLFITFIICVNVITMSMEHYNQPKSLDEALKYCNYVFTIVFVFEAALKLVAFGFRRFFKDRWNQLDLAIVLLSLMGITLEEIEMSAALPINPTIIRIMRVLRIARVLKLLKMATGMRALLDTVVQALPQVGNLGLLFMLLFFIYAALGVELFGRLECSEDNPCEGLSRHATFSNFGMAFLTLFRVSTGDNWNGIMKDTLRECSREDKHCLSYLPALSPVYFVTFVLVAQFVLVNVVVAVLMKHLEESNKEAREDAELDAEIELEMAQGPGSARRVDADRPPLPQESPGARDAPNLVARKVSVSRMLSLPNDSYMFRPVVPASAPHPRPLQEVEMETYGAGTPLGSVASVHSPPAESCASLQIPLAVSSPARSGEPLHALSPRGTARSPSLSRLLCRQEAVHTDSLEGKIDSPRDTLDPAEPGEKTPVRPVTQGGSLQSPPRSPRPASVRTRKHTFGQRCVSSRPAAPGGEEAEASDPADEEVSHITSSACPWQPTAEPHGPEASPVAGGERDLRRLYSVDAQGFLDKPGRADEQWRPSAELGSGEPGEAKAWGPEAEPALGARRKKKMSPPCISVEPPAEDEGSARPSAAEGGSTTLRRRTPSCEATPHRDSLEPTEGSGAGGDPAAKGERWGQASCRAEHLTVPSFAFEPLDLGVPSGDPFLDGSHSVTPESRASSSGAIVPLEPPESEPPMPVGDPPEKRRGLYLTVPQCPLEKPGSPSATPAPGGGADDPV

Mus musculus [5] = assay: Anti-seizure activity against electrical stimulus induced seizure in ip dosed CD-1 mouse model assessed as normal behavior within 10 seconds after stimulation at 6 Hz and 32 mA for 3 secs pretreated for […] by psychomotor seizure test; assay type: functional, organism-based
Mus musculus [6] = assay: Antiseizure activity against ScPTZ-induced seizure in ip dosed CD-1 mouse model assessed as clonic seizures pretreated for […] and measured after 30 mins by subcutaneous pentylenetetrazole test; assay type: functional, organism-based
Mus musculus [7] = species: Mus musculus; assay: animal or person; settings: CD-1, 0.5 h
Mus musculus [8] = assay: Antiseizure activity against electrical stimulus induced seizure in ip dosed CD-1 mouse model assessed as normal behavior within 10 seconds after stimulation at 6 Hz and 32 mA for 3 secs pretreated for 0.5 hr by psychomotor seizure test; assay type: functional, organism-based
Homo sapiens = species: Homo sapiens; assay: Binding affinity to TTX-sensitive sodium channel (unknown origin) at 100 uM
Mus musculus [9] = assay: Antiseizure activity against ScPTZ-induced seizure in ip dosed CD-1 mouse model assessed as clonic seizures pretreated for 0.5 hrs and measured after 30 mins by subcutaneous pentylenetetrazole test; assay type: functional, organism-based

CC[C@@H](C(N)=O)N1CCCC1=O
EC50 (Mus musculus [1]): > 500 mg/kg

C[C@@H](C(=O)NCc1ccccc1)N1C(=O)CCC1=O
Ki [2]: > 250 µM

C[C@H](C(=O)NCc1ccccc1)N1C(=O)CCC1=O
Ki [2]: > 250 µM

C=C(C)[C@@H]1CCC(C)=C[C@H]1c1c(O)cc(CCCCC)cc1O [CANNABIDIOL]
EC50 (Mus musculus [1]): 80 mg/kg
EC50 (Mus musculus [3]): 120 mg/kg

CCC1(C)CC(=O)NC1=O (stereo not drawn) [ETHOSUXIMIDE]
Activity [4]: Active
EC50 (Mus musculus [5]): > 200 mg/kg
EC50 (Mus musculus [6]): 140.4 mg/kg

COC[C@@H](NC(C)=O)C(=O)NCc1ccccc1 [LACOSAMIDE]
ED50 (Mus musculus [7]): 92 mg/kg
EC50 (Mus musculus [8]): 5.3 mg/kg
Activity (Homo sapiens): Active

CCCC(CCC)C(=O)O [VALPROIC ACID]
EC50 (Mus musculus [9]): 239.4 mg/kg
EC50 (Mus musculus [8]): 130.6 mg/kg
